Results published in PubChem BioAssay (NCI).
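Dose response: 5 concentrations. Exposure: 48 h. Format: 96-well plates. Endpoint: linear interpolation; highest concentration if not reached. TGI is the concentration that stops growth completely.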

Legend:
Experiment in all cases: growth of human tumour cells (NCI), 48 h
[1] = test system: OVCAR-8 ovarian
[2] = test system: SN12C renal
[3] = test system: A549 NSCLC
[4] = test system: OVCAR-4 ovarian
[5] = test system: UO-31 renal
[6] = test system: SF-295 CNS
[7] = test system: K-562 leukemia
[8] = test system: HCT-15 colon
[9] = test system: MALME-3M melanoma
[10] = test system: HS 578T breast
[11] = test system: SF-539 CNS
[12] = test system: MCF7 breast
[13] = test system: UACC-257 melanoma
[14] = test system: CAKI-1 renal
[15] = test system: LOX IMVI melanoma
[16] = test system: RPMI-8226 leukemia
[17] = test system: MDA-MB-231 breast
[18] = test system: DU-145 prostate
[19] = test system: RXF 393 renal
[20] = test system: HOP-92 NSCLC
[21] = test system: 786-0 renal
[22] = test system: ACHN renal
[23] = test system: HL-60(TB) leukemia
[24] = test system: OVCAR-3 ovarian
[25] = test system: MDA-MB-435
[26] = test system: HOP-62 NSCLC
[27] = test system: HT29 colon
[28] = test system: KM12 colon
[29] = test system: SK-OV-3 ovarian
[30] = test system: IGROV1 ovarian
[31] = test system: NCI-H23 lung
[32] = test system: OVCAR-5 ovarian
[33] = test system: PC-3 prostate
[34] = test system: SK-MEL-28 melanoma
[35] = test system: HCT-116 colon
[36] = test system: COLO 205 colon
[37] = test system: TK-10 renal
[38] = test system: SK-MEL-5 melanoma
[39] = test system: NCI-H226 lung
[40] = test system: HCC-2998 colon
[41] = test system: M14 melanoma
[42] = test system: NCI-H522 lung
[43] = test system: SW-620 colon
[44] = test system: T-47D breast
[45] = test system: NCI-H460 lung
[46] = test system: NCI/ADR-RES ovarian
[47] = test system: SK-MEL-2 melanoma
[48] = test system: SF-268 CNS
[49] = test system: U251 CNS
[50] = test system: SNB-75 CNS
[51] = test system: CCRF-CEM leukemia
[52] = test system: SR leukemia
[53] = test system: MDA-N
[54] = test system: A498 renal
[55] = test system: MOLT-4 leukemia
[56] = test system: EKVX NSCLC
[57] = test system: SNB-19 CNS
[58] = test system: BT-549 breast
[59] = test system: UACC-62 melanoma

O=C1CCCc2cc3c(cc21)CC1(C3)Cc2ccc3c(c2C1)C(=O)CCC3 (stereo not given)
TGI [1]: > 100 µM | TGI [2]: > 100 µM | TGI [3]: > 100 µM | TGI [4]: > 100 µM | TGI [5]: > 100 µM | TGI [6]: > 100 µM | TGI [7]: > 100 µM | TGI [8]: > 100 µM | TGI [9]: 43.6 µM | TGI [10]: > 100 µM | TGI [11]: > 100 µM | TGI [12]: 42.8 µM | TGI [13]: 26.5 µM | TGI [14]: > 100 µM | TGI [15]: > 100 µM | TGI [16]: 50.8 µM | TGI [17]: > 100 µM | TGI [18]: > 100 µM | TGI [19]: > 100 µM | TGI [20]: > 100 µM | TGI [21]: > 100 µM | TGI [22]: 55.4 µM | TGI [23]: 27.7 µM | TGI [24]: 69.9 µM | TGI [25]: 23.8 µM | TGI [26]: > 100 µM | TGI [27]: > 100 µM | TGI [28]: 37.9 µM | TGI [29]: > 100 µM | TGI [30]: > 100 µM | TGI [31]: > 100 µM | TGI [32]: > 100 µM | TGI [33]: > 100 µM | TGI [34]: 80.6 µM | TGI [35]: > 100 µM | TGI [36]: 34.9 µM | TGI [37]: > 100 µM | TGI [38]: 7.66 µM | TGI [39]: 90.1 µM | TGI [40]: > 100 µM | TGI [41]: 36.3 µM | TGI [42]: > 100 µM | TGI [43]: > 100 µM | TGI [44]: > 100 µM | TGI [45]: > 100 µM | TGI [46]: 37 µM | TGI [47]: 88.9 µM | TGI [48]: > 100 µM | TGI [49]: > 100 µM | TGI [50]: 80.4 µM | TGI [51]: 58.8 µM | TGI [52]: 40.3 µM | TGI [53]: 26.1 µM | TGI [54]: > 100 µM | TGI [55]: 22.7 µM | TGI [56]: > 100 µM | TGI [57]: > 100 µM

CCN(CC)CCNc1ccc2ncn3c4cc(OC)c(OC)c(=O)c4c(O)c1c23
TGI [1]: 27.9 µM | TGI [2]: 21.5 µM | TGI [3]: 35.1 µM | TGI [4]: 24.4 µM | TGI [5]: 25.7 µM | TGI [6]: 23.6 µM | TGI [7]: 50.7 µM | TGI [8]: 24.7 µM | TGI [9]: 36.8 µM | TGI [10]: 29.1 µM | TGI [11]: 29 µM | TGI [12]: 15.2 µM | TGI [13]: 44.2 µM | TGI [14]: 28.9 µM | TGI [15]: 2.74 µM | TGI [16]: 20.2 µM | TGI [17]: 20.7 µM | TGI [18]: 23.5 µM | TGI [19]: 6.26 µM | TGI [20]: 24.7 µM | TGI [21]: 26.4 µM | TGI [22]: 20.5 µM | TGI [23]: 26.3 µM | TGI [24]: 31.7 µM | TGI [25]: 26.9 µM | TGI [58]: 30.5 µM | TGI [26]: 28.2 µM | TGI [27]: 19.8 µM | TGI [28]: 23.2 µM | TGI [29]: 28.8 µM | TGI [30]: 35.6 µM | TGI [31]: 26.3 µM | TGI [32]: 45.4 µM | TGI [33]: 21 µM | TGI [34]: 27.5 µM | TGI [35]: 5.82 µM | TGI [36]: 17.4 µM | TGI [37]: 31.6 µM | TGI [38]: 29.8 µM | TGI [39]: 45.6 µM | TGI [40]: 23.2 µM | TGI [41]: 30.3 µM | TGI [42]: 25.9 µM | TGI [59]: 36.6 µM | TGI [43]: 16.5 µM | TGI [44]: 42.4 µM | TGI [45]: 15.6 µM | TGI [46]: 41.8 µM | TGI [47]: 42.7 µM | TGI [48]: 17.6 µM | TGI [49]: 28 µM | TGI [50]: 16.5 µM | TGI [51]: 53.1 µM | TGI [52]: 16.2 µM | TGI [54]: 29.5 µM | TGI [55]: 11.5 µM | TGI [56]: 33.2 µM | TGI [57]: 22.6 µM

COc1ccc2c(c1)CCN=C2c1ccccc1CCCCl
TGI [1]: > 100 µM | TGI [2]: 54.4 µM | TGI [3]: > 100 µM | TGI [4]: 52.2 µM | TGI [5]: 26.7 µM | TGI [6]: > 100 µM | TGI [7]: > 100 µM | TGI [8]: 74.1 µM | TGI [10]: 96.5 µM | TGI [11]: 45.6 µM | TGI [12]: > 100 µM | TGI [13]: > 100 µM | TGI [14]: 70.2 µM | TGI [16]: 11.8 µM | TGI [17]: 63.7 µM | TGI [18]: > 100 µM | TGI [19]: 82.1 µM | TGI [20]: > 100 µM | TGI [21]: > 100 µM | TGI [22]: 64.9 µM | TGI [23]: > 100 µM | TGI [24]: > 100 µM | TGI [25]: > 100 µM | TGI [58]: > 100 µM | TGI [26]: > 100 µM | TGI [27]: 58.2 µM | TGI [28]: > 100 µM | TGI [29]: > 100 µM | TGI [30]: > 100 µM | TGI [31]: 39.8 µM | TGI [32]: > 100 µM | TGI [33]: > 100 µM | TGI [34]: > 100 µM | TGI [35]: 61.3 µM | TGI [36]: 23.4 µM | TGI [37]: > 100 µM | TGI [38]: 13.3 µM | TGI [39]: > 100 µM | TGI [40]: 24.9 µM | TGI [41]: > 100 µM | TGI [42]: 52.5 µM | TGI [59]: > 100 µM | TGI [43]: > 100 µM | TGI [44]: > 100 µM | TGI [45]: 28.5 µM | TGI [46]: > 100 µM | TGI [47]: > 100 µM | TGI [48]: > 100 µM | TGI [49]: > 100 µM | TGI [50]: > 100 µM | TGI [51]: > 100 µM | TGI [54]: > 100 µM | TGI [55]: 42.4 µM | TGI [56]: > 100 µM | TGI [57]: 40.1 µM
